Results: US20030088061A1, “Materials and methods to modulate ligand binding/enzymatic activity of alpha/beta proteins containing an allosteric regulatory site” (priority 2000, published 2003)

What was measured:
Assay type in all cases: cell-based
αVβ3 = molecular target: T1, αVβ3 (Homo sapiens, UniProt P05106+P06756); test: JY/αVβ3 cell adhesion to vitronectin; details: PMA-treated JY cells; read-out: VN αVβ3 IC50
T1 construct: endogenous in cells; host or cells: JY cells
Experimental: (§1) To assess the selectivity of each compound, an IC50 value was determined for additional binding partner compounds JY/αVβ3 and vitronectin, JY/α4β1 and VCAM/Ig, JY/αdβ2 and VCAM, JY/[…] and ICAM-1, JY/αMβ2 and iC3b, and JY/α4β7 and MAdCAM-1.
(§2) For each IC50 assay, 50 μl of the ligand diluted in 50 mM bicarbonate buffer (pH 9.6) was dispensed per well of an Immulon-4 plate. A single plate was used to test two different ligands, each in triplicate, The coating concentration for the various ligands was as follows: VCAM-1/Ig at 2.0 μg/ml; ICAM-1/Ig at 5.0 μg/ml; vitronectin at 0.5 μg/ml; MAdCAM-1/Ig at 3.0 μg/ml, and iC3b at 5.0 μg/ml. The capture antibody, e.g. anti-CD18 monoclonal antibody TS1/22, was added at a concentration of 10 μg/ml in 50 μl/well. Ligand-coated plates were covered and stored overnight at 4° C. The following day, the contents of each well was decanted, and each plate was washed three times with 200 μl/well D-PBS. The plate was then blocked by the addition of 300 μl/well of 1% BSA/D-PBS solution. Each plate was again covered and incubated at room temperature for at least 1 hour.
Prior to transfer to the adhesion plate, the compounds were initially diluted by transferring 4.2 μl of the diluted compounds to a 96-well deepwell titer plate containing 0.7 ml/well of RPMI 1640, 0.1% BSA, and 3 ng/ml PMA (Sigma Corp., St. Louis, Mo.) pre-warmed to 37° C. The 1% BSA/D-PBS blocking solution was decanted from the 96-well Immulon-4 plates and replaced with 0.2 ml of diluted compound. […]
(§3) The adhesion assay was initiated by addition of 100 μl of the cell suspension to each well of the Immulon-4 plate. […] Adherent cells were quantitated by determining the absorbance at 570 nm in a plate spectrophotometer. The percentage of cell binding was determined by using the mean values for each triplicate in a given assay and the formula below. […]
(§4) The four compounds Cmpd K, Cmpd W, Cmpd Z, Cmpd D identified in the primary screen were selected for further specificity profiling, whereby their IC50 values were determined in additional integrin-dependent adhesive events. […]

α4β7 = molecular target: T2, α4β7 (Homo sapiens, UniProt P13612+P26010); test: JY/α4β7 cell adhesion to MAdCAM-1/Ig; details: PMA-treated JY cells
T2 construct: endogenous in cells; host or cells: JY cells
T2 sequence (P13612 34-1032): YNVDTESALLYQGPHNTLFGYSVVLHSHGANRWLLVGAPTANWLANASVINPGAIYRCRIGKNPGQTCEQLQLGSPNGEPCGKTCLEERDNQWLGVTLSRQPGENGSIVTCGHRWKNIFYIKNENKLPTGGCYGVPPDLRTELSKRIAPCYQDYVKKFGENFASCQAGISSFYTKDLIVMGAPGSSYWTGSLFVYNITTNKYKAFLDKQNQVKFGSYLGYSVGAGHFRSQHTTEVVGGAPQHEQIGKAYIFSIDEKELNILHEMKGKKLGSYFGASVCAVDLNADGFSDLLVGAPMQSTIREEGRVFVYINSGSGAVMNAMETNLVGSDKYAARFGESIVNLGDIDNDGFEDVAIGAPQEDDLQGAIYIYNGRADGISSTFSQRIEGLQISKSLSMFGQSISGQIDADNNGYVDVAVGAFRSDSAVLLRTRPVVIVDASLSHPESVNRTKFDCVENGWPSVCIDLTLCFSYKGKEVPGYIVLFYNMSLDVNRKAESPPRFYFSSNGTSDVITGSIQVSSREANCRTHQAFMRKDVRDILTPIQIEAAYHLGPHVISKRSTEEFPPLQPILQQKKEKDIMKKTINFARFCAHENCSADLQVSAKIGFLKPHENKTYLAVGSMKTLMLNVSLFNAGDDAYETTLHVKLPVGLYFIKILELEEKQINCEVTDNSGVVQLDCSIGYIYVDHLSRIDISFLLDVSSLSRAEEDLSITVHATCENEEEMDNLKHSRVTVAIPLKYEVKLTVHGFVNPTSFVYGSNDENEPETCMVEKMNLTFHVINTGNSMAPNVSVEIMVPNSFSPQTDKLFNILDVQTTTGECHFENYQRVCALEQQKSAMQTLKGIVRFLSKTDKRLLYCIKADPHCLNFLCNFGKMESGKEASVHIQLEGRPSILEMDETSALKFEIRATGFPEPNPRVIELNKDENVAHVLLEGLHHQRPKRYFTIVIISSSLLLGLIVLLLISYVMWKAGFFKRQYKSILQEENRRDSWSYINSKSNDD
T2 sequence (P26010 20-798): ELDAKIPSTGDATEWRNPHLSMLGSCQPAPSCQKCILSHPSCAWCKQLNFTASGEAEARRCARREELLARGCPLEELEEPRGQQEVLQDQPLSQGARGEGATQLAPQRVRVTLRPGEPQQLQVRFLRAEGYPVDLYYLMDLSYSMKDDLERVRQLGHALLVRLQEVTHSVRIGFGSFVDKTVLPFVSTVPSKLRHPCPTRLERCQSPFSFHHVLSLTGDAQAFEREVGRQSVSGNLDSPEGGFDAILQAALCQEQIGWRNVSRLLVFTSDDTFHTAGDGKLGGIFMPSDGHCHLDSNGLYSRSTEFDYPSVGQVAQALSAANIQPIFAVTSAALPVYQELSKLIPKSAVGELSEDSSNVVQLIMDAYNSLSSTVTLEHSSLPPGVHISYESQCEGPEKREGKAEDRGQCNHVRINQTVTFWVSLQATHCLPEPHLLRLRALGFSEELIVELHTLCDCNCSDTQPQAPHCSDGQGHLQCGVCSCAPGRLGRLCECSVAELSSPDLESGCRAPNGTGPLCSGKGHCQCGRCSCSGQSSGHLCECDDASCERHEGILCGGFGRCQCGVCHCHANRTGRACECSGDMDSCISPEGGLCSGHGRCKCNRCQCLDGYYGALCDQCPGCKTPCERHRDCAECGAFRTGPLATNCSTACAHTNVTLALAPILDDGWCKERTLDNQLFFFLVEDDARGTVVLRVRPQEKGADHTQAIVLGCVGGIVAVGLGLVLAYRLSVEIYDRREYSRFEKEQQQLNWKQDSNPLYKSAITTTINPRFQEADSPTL
Experimental: as §1, §2
(§5) Prior to transfer to the adhesion plate, the compounds were initially diluted by transferring 4.2 μl of the diluted compounds to a 96-well deepwell titer plate containing 0.7 ml/well of RPMI 1640, 0.1% BSA, and 3 ng/ml PMA (Sigma Corp., St. Louis, Mo.) pre-warmed to 37° C. The 1% BSA/D-PBS blocking solution was decanted from the 96-well Immulon-4 plates and replaced with 0.2 ml of diluted compound. For each 96-well plate to be screened, approximately 8×10^6 cells were collected by centrifugation and resuspended in adhesion media (RPMI 1640 containing 0.1% BSA) to a final concentration of 10^6/ml. To prevent PMA-dependent homotypic aggregation in the adhesion assay, the anti-CD18 antibody 22F12C (ICOS Corp., Bothell, Wash.) was added to the cell suspensions to a final concentration of 10 μg/ml, and the cells were incubated at 37° C. for 15 min. This antibody was not added to CD18-dependent adhesion assays involving JY/αLβ2, JY/αdβ2 or JY/αMβ2 and their corresponding ligands ICAM-1, VCAM-1, or iC3b.
as §3, §4

α4β1 = α4β1 (Homo sapiens, UniProt P05556+P13612); test: JY/α4β1 cell adhesion to VCAM-1/Ig; set-up: host or cells: JY cells; details: PMA-treated JY cells
Chain of α4β1 (P13612 34-1032): as the sequence (P13612 34-1032) above
Chain of α4β1 (P05556 21-798): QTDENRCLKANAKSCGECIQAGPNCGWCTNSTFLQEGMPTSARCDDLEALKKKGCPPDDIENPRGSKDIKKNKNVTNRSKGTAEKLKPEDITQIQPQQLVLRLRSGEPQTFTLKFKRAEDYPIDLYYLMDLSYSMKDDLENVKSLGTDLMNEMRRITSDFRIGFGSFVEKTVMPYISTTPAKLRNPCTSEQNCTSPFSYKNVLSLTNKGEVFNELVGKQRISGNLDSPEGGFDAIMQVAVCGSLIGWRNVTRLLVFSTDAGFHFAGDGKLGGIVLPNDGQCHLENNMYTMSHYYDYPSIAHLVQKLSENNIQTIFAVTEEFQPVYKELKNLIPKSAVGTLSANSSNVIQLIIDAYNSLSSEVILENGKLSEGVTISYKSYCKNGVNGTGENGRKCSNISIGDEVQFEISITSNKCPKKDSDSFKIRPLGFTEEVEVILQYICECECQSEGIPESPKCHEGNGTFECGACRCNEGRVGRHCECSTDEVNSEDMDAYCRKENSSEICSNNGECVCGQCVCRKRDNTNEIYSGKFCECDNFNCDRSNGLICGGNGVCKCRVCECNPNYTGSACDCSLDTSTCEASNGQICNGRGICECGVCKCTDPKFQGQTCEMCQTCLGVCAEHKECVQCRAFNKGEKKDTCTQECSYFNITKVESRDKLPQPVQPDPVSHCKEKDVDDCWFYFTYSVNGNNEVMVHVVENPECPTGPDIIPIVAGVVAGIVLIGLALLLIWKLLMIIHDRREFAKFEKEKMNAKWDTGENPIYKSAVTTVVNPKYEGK
Experimental: as §1, §2, §5, §3, §4

T1 sequence (P06756 31-889 limits assumed): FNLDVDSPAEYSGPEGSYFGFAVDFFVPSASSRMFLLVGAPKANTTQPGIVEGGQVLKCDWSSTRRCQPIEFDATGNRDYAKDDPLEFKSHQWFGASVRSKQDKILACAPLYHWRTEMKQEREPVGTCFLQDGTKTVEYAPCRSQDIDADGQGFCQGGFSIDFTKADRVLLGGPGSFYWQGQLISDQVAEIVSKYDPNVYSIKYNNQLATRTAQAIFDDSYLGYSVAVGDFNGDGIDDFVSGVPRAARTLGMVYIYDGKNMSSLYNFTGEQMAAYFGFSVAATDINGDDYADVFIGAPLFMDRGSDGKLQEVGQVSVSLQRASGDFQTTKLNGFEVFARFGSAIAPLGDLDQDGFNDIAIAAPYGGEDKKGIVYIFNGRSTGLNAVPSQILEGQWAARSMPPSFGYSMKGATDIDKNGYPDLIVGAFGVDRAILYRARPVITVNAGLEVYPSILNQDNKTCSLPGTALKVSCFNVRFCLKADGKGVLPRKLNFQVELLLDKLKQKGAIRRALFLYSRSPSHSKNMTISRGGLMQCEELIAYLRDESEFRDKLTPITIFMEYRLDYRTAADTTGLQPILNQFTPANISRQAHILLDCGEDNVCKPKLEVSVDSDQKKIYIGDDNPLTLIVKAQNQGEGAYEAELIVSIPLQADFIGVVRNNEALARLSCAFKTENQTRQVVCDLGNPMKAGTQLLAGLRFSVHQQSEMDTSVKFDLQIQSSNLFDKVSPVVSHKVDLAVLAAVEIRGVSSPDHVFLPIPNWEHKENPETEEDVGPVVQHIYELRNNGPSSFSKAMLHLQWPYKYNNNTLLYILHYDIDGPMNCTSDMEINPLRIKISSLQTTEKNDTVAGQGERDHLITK
T1 sequence (P06756 891-1048 partner limits assumed): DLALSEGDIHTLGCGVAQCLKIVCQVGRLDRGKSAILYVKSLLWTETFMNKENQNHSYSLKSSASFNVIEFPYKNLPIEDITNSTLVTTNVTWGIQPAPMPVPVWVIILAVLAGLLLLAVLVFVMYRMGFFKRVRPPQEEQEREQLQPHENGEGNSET
T1 sequence (P05106 27-788): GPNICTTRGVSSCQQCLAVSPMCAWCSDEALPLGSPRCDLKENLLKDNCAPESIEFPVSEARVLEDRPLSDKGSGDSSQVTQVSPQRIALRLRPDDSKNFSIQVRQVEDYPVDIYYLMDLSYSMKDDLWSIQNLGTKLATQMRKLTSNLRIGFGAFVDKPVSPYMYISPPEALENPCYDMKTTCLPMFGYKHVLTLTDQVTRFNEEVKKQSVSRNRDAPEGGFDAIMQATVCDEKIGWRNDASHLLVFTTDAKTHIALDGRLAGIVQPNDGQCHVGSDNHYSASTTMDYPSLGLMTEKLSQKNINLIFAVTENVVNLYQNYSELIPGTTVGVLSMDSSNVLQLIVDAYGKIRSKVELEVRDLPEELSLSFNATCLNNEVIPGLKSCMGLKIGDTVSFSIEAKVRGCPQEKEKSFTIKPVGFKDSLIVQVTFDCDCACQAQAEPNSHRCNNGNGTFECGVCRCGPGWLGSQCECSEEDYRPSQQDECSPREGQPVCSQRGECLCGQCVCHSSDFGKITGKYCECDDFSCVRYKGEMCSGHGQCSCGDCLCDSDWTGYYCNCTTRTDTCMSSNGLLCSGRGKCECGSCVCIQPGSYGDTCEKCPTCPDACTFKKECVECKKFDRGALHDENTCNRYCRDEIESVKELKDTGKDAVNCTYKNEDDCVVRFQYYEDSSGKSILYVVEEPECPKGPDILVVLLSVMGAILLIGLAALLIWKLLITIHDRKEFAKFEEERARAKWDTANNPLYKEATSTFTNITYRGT

Compound `CC(=O)Oc1ccccc1C(=O)n1c(-c2ccccc2)cc2ccccc21` [Cmpd D] has an IC50 (αVβ3) of 4 µM, an IC50 (α4β7) of 4 µM and an IC50 (α4β1) of over 40 µM.
With `O=C(NCc1cccnc1)c1ccccc1C(=O)Nc1sc2ccccc2c1Cl` [Cmpd K] the IC50 (αVβ3) was 6 µM, the IC50 (α4β7) was 4 µM and the IC50 (α4β1) was over 40 µM.
For `Nc1ccc(Sc2ccc(NC(=O)CCc3ccccc3)cc2)c(Cl)c1` [Cmpd W], the IC50 (αVβ3) was 8 µM, the IC50 (α4β7) was 5 µM and the IC50 (α4β1) was over 40 µM.
`CC(CN(C)C)NCc1ccccc1Sc1ccc(C(C)(C)C)cc1` (centres unmarked) [Cmpd Z] showed an IC50 (α4β7) of 11 µM and an IC50 (α4β1) of over 40 µM.
